Results as given in article PMC6689002, “Anthocyanins, delphinidin-3-O-glucoside and cyanidin-3-O-glucoside, inhibit immune checkpoints in human colorectal cancer cells in vitro and in silico” (Scientific Reports, 2019).

How the values were obtained:
[1] = target: T1, programmed death-ligand 1 (PD-L1) (Homo sapiens, UniProt Q9NZQ7); test: intrinsic fluorescence quenching (Stern-Volmer, static quenching); assay type: binding
T1 construct: gene CD274; recombinant human PD-L1 protein

[2] = target: T2, programmed cell death protein 1 (PD-1) (Homo sapiens, UniProt Q15116); test: as above; assay type: binding
T2 construct: gene PDCD1; human PD-1 protein
T2 sequence (Q15116 25-288): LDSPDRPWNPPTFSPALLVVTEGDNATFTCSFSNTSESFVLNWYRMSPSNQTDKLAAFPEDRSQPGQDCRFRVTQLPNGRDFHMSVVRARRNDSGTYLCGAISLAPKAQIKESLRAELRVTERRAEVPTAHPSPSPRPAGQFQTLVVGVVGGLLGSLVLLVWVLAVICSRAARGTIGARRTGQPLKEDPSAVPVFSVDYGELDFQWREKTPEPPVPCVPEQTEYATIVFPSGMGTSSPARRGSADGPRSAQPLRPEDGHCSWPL

T1 sequence (Q9NZQ7 19-290): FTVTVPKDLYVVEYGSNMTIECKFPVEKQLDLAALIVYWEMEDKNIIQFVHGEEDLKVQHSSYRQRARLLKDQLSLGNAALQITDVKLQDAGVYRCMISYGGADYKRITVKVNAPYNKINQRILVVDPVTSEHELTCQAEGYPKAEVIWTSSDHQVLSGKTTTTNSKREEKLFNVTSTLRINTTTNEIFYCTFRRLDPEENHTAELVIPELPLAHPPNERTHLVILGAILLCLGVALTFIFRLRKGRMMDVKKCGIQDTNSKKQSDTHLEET

| SMILES | intrinsic fluorescence quenching (Stern-Volmer, static quenching) [1] | intrinsic fluorescence quenching (Stern-Volmer, static quenching) [2] |
| --- | --- | --- |
| OCC1OC(Oc2cc3c(O)cc(O)cc3[o+]c2-c2cc(O)c(O)c(O)c2)C(O)C(O)C1O (stereo not shown) [D3G, delphinidin-3-O-glucoside] | C3G and D3G showed static quenching with both PD-1 and PD-L1 | C3G and D3G showed static quenching with both PD-1 and PD-L1 |
| OCC1OC(Oc2cc3c(O)cc(O)cc3[o+]c2-c2ccc(O)c(O)c2)C(O)C(O)C1O (stereo not shown) [C3G, cyanidin-3-O-glucoside] | C3G and D3G showed static quenching with both PD-1 and PD-L1 | C3G and D3G showed static quenching with both PD-1 and PD-L1 |
